Data set [1] concerns human neutrophils. Put plainly: microfluidic perfusion assay: neutrophil rolling and arrest on P-selectin/ICAM-1 with IL-8. The format is cell-based. The settings on record: 10 μM. How it is done:
The assembly of the microfluidic devices used in this study and the coating of coverslips with recombinant human P-selectin-Fc and ICAM-1-Fc with or without IL-8 have been described previously. Briefly, coverslips were coated with P-selectin-Fc (2 μg·ml^−1) and ICAM-1-Fc (10 μg·ml^−1) without or with IL-8 (10 μg·ml^−1) for two hours and then blocked for one hour with casein (1%) at RT. After coating, coverslips were sealed with polydimethylsiloxane chips by magnetic clamps to create flow chamber channels ˜29 μm high and ˜300 μm across. By modulating the pressure between the inlet well and the outlet reservoir, 6 dyn·cm^−2 wall shear stress was applied in all experiments.
To study the rolling and arrest of neutrophils, isolated human neutrophils (5×10^6 cells·ml^−1) were perfused in the microfluidic device over a substrate of recombinant human P-selectin-Fc and recombinant human ICAM-1-Fc with or without IL-8 under a shear stress of 6 dyn·cm^−2. […] Time-lapse images (one frame per second) were taken by an IX71 inverted research microscope (Olympus America) with a 40× NA 0.9 air objective during the perfusion to quantify rolling velocity. The quantification was done using the “Manual tracking” plugin in FIJI-ImageJ v2.0. Cell tracks (FIG. 1A) and rolling velocity were obtained (FIGS. 1B, 2C). After perfusion with neutrophils for 10 minutes, the microfluidic device was washed with RPMI-1640 without phenol red plus 2% HSA for 5 minutes. Then, the arrested neutrophils were counted in nine fields-of-view per group (FIG. 1D).

Data set [2] relates to human neutrophils. As to conditions: 30 mins GM-CSF and fMLP; pretreatment; cited from earlier work.
Data set [3] deals with human neutrophils. The settings on record: 1 and 4 hours of incubation; previous study; cited from earlier work.
Data set [4] deals with β2 integrins on human neutrophils. Put plainly: flow cytometry of β2 integrin activation and exocytosis (mAb24, KIM127, TS1/18) after IL-8. The class given is cell-based. The settings on record: for inhibition at 10 µM: Homo sapiens, Neutrophil. How it is done: To monitor the dynamics of β2 integrin activation, 400 μL of 2.5×10^5 cells·mL^−1 neutrophils were assessed by an LSRII analyzer (BD Biosciences, San Jose, CA) for 10 s. After adding 0.5 μg·mL^−1 AF488-conjugated mAb24 and DL550-conjugated KIM127 (final concentration), cells were put back into the analyzer for another 5 minutes. Then, after adding 1 μg·mL^−1 IL-8, cells were put back into the analyzer for another 10 minutes. The curves showing the dynamics of integrin activation (FIGS. 2A, 2B) were generated by FlowJo software (version 10.6). The antibody specificities were validated in our previous study using β2 integrin knockout cells and β2-integrin-activation-deficient talin-1 knockout cells. Compensations were performed before all experiments.
To quantify the percentage of mAb24 and KIM127 epitopes and assess inhibition of β2 integrin exocytosis, pan-CD18 […] TS1/18, which has the same isotype (mouse IgG1) as mAb24 and KIM127, was used. […] Neutrophils were mixed with unconjugated mAb24 (1 μg·mL^−1), KIM127 (1 μg·mL^−1), […] (1 μg·mL^−1), or mouse IgG1 isotype control (1 μg·mL^−1), and incubated with 1 μg·mL^−1 IL-8 at RT for 10 min. After incubation, neutrophils were fixed by 1% PFA at 4° C. for 10 min. After two washes with PBS, cells were incubated with APC-conjugated rat anti-mouse IgG1 secondary mAb (1 μg·mL^−1) at RT for 10 min. After two washes with PBS, cell fluorescence was assessed with an LSRII (BD Biosciences, San Jose, CA) and analyzed with FlowJo software (version 10.6). The quantifications of mAb24, KIM127, TS1/18, and isotype mean fluorescence intensities (MFI) (FIGS. 2C-2E) were analyzed by FlowJo software (version 10.6) and obtained from six replicates. MFI of isotype controls was subtracted as background signal. Since mAb24, KIM127, and TS1/18 are all IgG1 isotypes and we used the same secondary antibody, the percentage of high-affinity and extended β2 integrins (FIGS. 2F and 2G) can be calculated by dividing the MFI of mAb24 and KIM127 by the MFI of TS1/18.
For orientation: In flow cytometry, cells or beads pass a laser one at a time.

Data set [5] has as its system human neutrophils. Put plainly: total ROS production of isolated human neutrophils after PMA. The format is cell-based. As to conditions: 10 μM; after 50 min of 100 nM PMA; ICAM-1-coated wells. How it is done: ROS production of isolated human neutrophils was quantified by using the Total ROS Assay kit from Invitrogen. A black, clear bottom, non-treated 96-well plate was used in this assay. Before the assay, the 96-well plate was coated with 10 μg·mL^−1 human ICAM-1-Fc at RT for 2 hours and washed twice with PBS. […] After centrifuging at 300×g, RT for 2 min, cells were resuspended at 10^6 cells·mL^−1 in the ROS Assay Stain Solution from the kit and incubated with 2 μg·mL^−1 mouse anti-human CD18 blocking mAb (TS1/18 to block neutrophil adhesion) or isotype control at RT for 10 min. The 100 μL·well^−1 neutrophils (3 replicates per group) were seeded into the ICAM-1-coated 96-well plate. The background ROS before stimulation was measured by Cytation 1 Cell Imaging Multi-Mode Reader (Filter set: Green, Ex: 485/20 nm, Em: 528/20 nm, BioTek, Santa Clara, CA). Then 100 nM PMA was added to each well, and ROS production was measured by Cytation 1 Cell Imaging Multi-Mode Reader every 5 minutes.

Data set [6] concerns human neutrophils. Put plainly: neutrophil viability by flow cytometry (Ghost Dye Blue 516). The class given is cell-based. As to conditions: 100 μM Nexinhib20, one hour at room temperature. How it is done:
After washes, neutrophils were incubated with Ghost Dye Blue 516 at RT for 15 minutes. After washes, cell fluorescence was assessed with an LSRII (BD Biosciences, San Jose, CA) and analyzed with FlowJo software (version 10.6).

The structures appear in SMILES notation. Where two headings read alike, the source gives them in different places.

In general, inhibition refers to the share of the control response that was lost under treatment.

Take `CC(C)(C)C(=O)/C(=C\c1cccc([N+](=O)[O-])c1)n1cncn1` [Nexinhib20, 4,4-dimethyl-1-(3-nitrophenyl)-2-(1H-1,2,4-triazol-1-yl)-1-penten-3-one]: the “effect of IL-8 on rolling velocity of treated neutrophils” value in data set [1] (RT 1 hour) is “did not slow down”. Further, the “neutrophil arrest on IL-8 substrate” value in data set [1] (RT 1 hour before perfusion) is “failed to arrest”. For the same molecule, in data set [1] (RT 1 hour, P-selectin/ICAM-1/IL-8, 6 dyn·cm^−2), the “decrease of number of arrested neutrophils” value is “about 90%”. Besides, the “number of arrested neutrophils” value in data set [1] (RT 1 hour, P-selectin/ICAM-1/IL-8, 6 dyn·cm^−2, vehicle about 200) is recorded as “about 20 cells per field-of-view”. In addition, the CD11b upregulation result in data set [2] was “diminished”. Moreover, the “cell death compared to DMSO vehicle controls” value in data set [3] is “did not induce a significant increase in cell death”. The “β2 integrin exocytosis (total CD18 surface expression, TS1/18)” value in data set [4] (10 μM, RT 1 hour, 10 min 1 μg·mL^−1 IL-8) is recorded as “inhibited significantly”. Moreover, the “percentage of high-affinity β2 integrins (mAb24 MFI/TS1/18 MFI)” value in data set [4] (10 μM, 10 min after IL-8) was “reduced the percentage of high-affinity”. Moreover, the inhibition at 10 µM is roughly 20% in data set [4] (RT 1 hour, 10 min 1 μg·mL^−1 IL-8, read-out: inhibition of IL-8-induced elevation of KIM127 (extended β2 integrins)) and roughly 75% in data set [4] (RT 1 hour, 10 min 1 μg·mL^−1 IL-8, read-out: inhibition of IL-8-induced elevation of mAb24 (high-affinity β2 integrins)). For the same molecule, the “total ROS production” value in data set [5] is “significantly reduced”. Moreover, the neutrophil viability in data set [6] is given as roughly 100%.
